The values that follow are results of earlier work, collected in patent publication US20190167649A1, “TOPICAL RAPAMYCIN THERAPY” (THE BOARD OF REGENTS OF THE UNIVERSITY OF TEXAS SYSTEM, priority 2016, published 2019).

Consider Rapamycin, for which the “solubility in organic solvents” value (benzyl alcohol, chloroform, acetone, and acetonitrile) was “freely soluble”. Moreover, the solubility in water (water) was 2.6 µg/mL.
